Measured values from US4582824A, “Method for inhibiting activities of platelet activating factor” (Takeda Chemical Industries, Ltd., priority 1983, dated 1986).

test system: PAF-induced platelet aggregation (washed PRP); assay: Activity to inhibit PAF in platelet aggregation (washed PRP); format: cell-based, rabbit; settings: Oryctolagus cuniculus, test compound 3×10^-5 M, PAF 3×10^-7 M, 37° C., read-out: Inhibition rate
Method: Using an injection syringe containing a 3.15% solution of citric acid (in a ratio of 1 part per 9 parts of blood) as an anticoagulant, the blood was directly collected from a male rabbit. Then, at room temperature, the blood was centrifuged at 1,000 r.p.m. for 10 minutes to harvest a platelet rich plasma (PRP). This PRP was further centrifuged at 1,400 r.p.m. for 15 minutes to give a platelet pellet. The pellet was suspended in Ca^++ -free Tyrode solution (containing 0.25% of gelatin) to give a washed PRP. This washed PRP (250 μl) was stirred at 37° C. for 2 minutes, then 25 μl of a 0.2 to 0.5 mM Ca^++ solution was added, and the mixture was further stirred for 30 seconds. Then, the test compound was added to the above platelet preparation to a level of 3×10^-5 M. After stirring the mixture for 2 minutes, 3×10^-7 M of PAF was added. The degree of platelet aggregation was determined with a platelet aggregometer (Rika Denki). The activity of the test compound was estimated from the inhibition rate as compared with the maximum optical transmission (maximum aggregation) of control PRP by PAF.

SMILES | inhibition at 30 µM [%]
CCCCCCCCCCCCCCCCCCNC(=O)OCC(COP(=O)([O-])OCC[n+]1ccccc1)OC (stereo not shown) [Production Example 1, 3-(N-Octadecylcarbamoyloxy)-2-methoxypropyl 2-pyridinioethyl phosphate] | 95
CCCCCCCCCCNC(=O)OCC(COP(=O)([O-])OCC[n+]1ccsc1)OC (stereo not shown) [Production Example 3, 3-(N-Decylcarbamoyloxy)-2-methoxypropyl 2-thiazolioethyl phosphate] | 12
CCCCCCCCCCCCCCCCCCNC(=O)OCC(COP(=O)([O-])OCC[n+]1csc(CCO)c1C)OC (stereo not shown) [Production Example 4, 3-(N-octadecylcarbamoyloxy)-2-methoxypropyl 2-(4-methyl-5-hydroxyethyl)thiazolioethyl phosphate] | 33
CCCCCCCCCCCCCCCCCCNC(=O)OCC(COP(=O)([O-])OCC[n+]1ccc2ccccc2c1)OC (stereo not shown) [Production Example 5, 3-(N-Octadecylcarbamoyloxy)-2-methoxypropyl 2-isoquinolinioethyl phosphate] | 37
CCCCCCCCCCCCCCCCCCNC(=O)OCC(COP(=O)([O-])OCC[n+]1ccsc1)OCc1ccccc1 (stereo not shown) [Production Example 6, 3-(N-Octadecylcarbamoyloxy)-2-benzyloxypropyl 2-thiazolioethyl phosphate] | 79
CCCCCCCCCCCCCCCCCCNC(=O)OCC(COP(=O)([O-])OCC[n+]1ccccc1)OCc1ccccc1 (stereo not shown) [Production Example 7, 3-(N-Octadecylcarbamoyloxy)-2-benzyloxypropyl 2-pyridinioethyl phosphate] | 19
CCCCCCCCCCCCCCCCCCCCCCNC(=O)OCC(COP(=O)([O-])OCC[n+]1ccsc1)OC (stereo not shown) [Production Example 8, 3-(N-Docosylcarbamoyloxy)-2-methoxypropyl 2-thiazolioethyl phosphate] | 24
CCCCCCCCCCCCCCCNC(=O)OCC(COP(=O)([O-])OCC[n+]1ccsc1)OC (stereo not shown) [Production Example 10, 2-Methoxy-3-pentadecylcarbamoyloxypropyl 2-thiazolioethyl phosphate] | 100
CCCCCCCCCCCCCCCCNC(=O)OCC(COP(=O)([O-])OCC[n+]1ccsc1)OC (stereo not shown) [Production Example 11, 2-Methoxy-3-hexadecylcarbamoyloxypropyl 2-thiazolioethyl phosphate] | 100
CCCCCCCCCCCCCCCCCNC(=O)OCC(COP(=O)([O-])OCC[n+]1ccsc1)OC (stereo not shown) [Production Example 12, 2-methoxy-3-heptadecylcarbamoyloxypropyl 2-thiazolioethyl phosphate] | 100
